Where two headings read alike, the source gives them in different places. Where only a bound is given, the exact number is not on record here.

One experiment addresses hMC1R (Homo sapiens, UniProt Q01726). Description: Human MC1R radioligand binding assay. The note with it: hMCR binding selectivity, [125I] NDP-MSH, membranes. Here is the method:
(§1) • Na^125I (0.5 mCi, 17.4 Ci/mg) was added to 50 μL sodium phosphate (50 mM, pH7.4) in an eppendorf tube precoated with IODOGEN. After incubation for 10 mins the phosphate buffer containing the iodine was added to NDP-MSH (10 ul at 1 mg/mL) in a separate eppendorf tube. This was incubated for a further 10 mins. The iodinated NDP-MSH was purified by HPLC on a Zorbax SB 300 column using solvent A: 0.05% TFA and solvent B: 90% acetonitrile 0.045% TFA with a linear gradient, 0-67% B over 60 mins. […] Resuspended membranes were kept on ice until they were added to the wells of the plate. Binding Protocol for 400 microassays per vial: • Assays were performed in 96 well polypropylene plates. […] This was incubated for 1 hr at 37° C.
(§2) Radioligand binding assays were carried out using commercial or in-house prepared hMC1R, hMC3R and hMC4R membranes and [125I]
(§3) The homogenisation and ice incubation was repeated three times. The mixture was then centrifuged at 1260×g for 5 mins. […] This was centrifuged at 30,000×g for 90 mins at 4° C.

In another experiment the target is hMC3R (Homo sapiens, UniProt P41968). The experiment can be described thus: Human MC3R radioligand binding assay. The note with it: hMCR binding selectivity, [125I] NDP-MSH, membranes. As for the experimental part:
as §1, §2, §3

For a further experiment, the target named is hMC4R (Homo sapiens, UniProt P32245). The experiment can be described thus: Human MC4R radioligand binding assay. To be noted: hMCR binding selectivity, [125I] NDP-MSH, membranes. As for the experimental part: as §1, §2, §3
For experiment [1], the target named is T1, rhesus monkey MC5R (whole cells) (Macaca mulatta, UniProt A0A5F8AEA9).
T1 construct: expressed in transfected cells
The experiment can be described thus: MC5R radioligand binding, rhesus monkey MC5R whole cells.

Experiment [2] deals with T2, rhesus monkey MC5R (membranes) (Macaca mulatta, UniProt A0A5F8AEA9).
T2 construct: expressed in transfected cells
Description: MC5R radioligand binding, rhesus monkey MC5R membranes.

A further experiment deals with T3, mouse MC5R (membrane) (Mus musculus, UniProt P41149).
T3 construct: purchased Euroscreen
The experiment can be described thus: MC5R radioligand binding, mouse MC5R membranes.

Experiment [3] deals with T4, human MC5R (Homo sapiens, UniProt P33032).
T4 construct: host or cells: HEK 293
Description: cAMP stimulation assay, agonism, HEK 293 cells expressing human MC5R. Format: cell-based.
Description: (§4) The mammalian cell line, human embryonic kidney cells (HEK 293), were maintained in Dulbeccos Modified Eagle's medium (DMEM) with 5% fetal bovine serum (BSA), L-glutamine, high glucose and antibiotics/antimycotics. On the day prior to transfection, cells were passaged using trypsin/EDTA and seeded into 75 cm^2 flasks so that they would be approximately 90% confluent the next day. The next day, the cell media was replaced with fresh antibiotic/antimycotic-containing DMEM. Approximately 100 μl of the transfection lipid Turbofectin 8.0 (Origene Technologies, MD, USA), was diluted in 1.0 mL of serum and antibiotic/antimycotic-free OptiMEM in a sterile 15 mL tube and incubated for 5 mins at room temperature. […]
(§5) Basal level (of cAMP) control wells contained stimulation buffer only (no agonist or compounds). […] After incubation, 10 μl of lysis buffer (10% Tween 20, 1 M HEPES, 0.1% BSA, protease inhibitors, ddH2O) was added to all wells to be measured. […] 5 μl of diluted acceptor beads were added to each well to be measured, then the plate was incubated for 30 mins at room temperature, in the dark, with gentle shaking. […] Plates were read on an Envision plate reader (Perkin Elmer) after 1 hr and ˜16hrs incubation. cAMP concentration in the cells was determined by the use of a ‘standard curve’ generated from the output of known cAMP concentrations as described below. […]

Experiment [4] concerns the target T4, human MC5R. Description: cAMP assay, antagonism of alpha-MSH, HEK 293 cells expressing human MC5R. In kind it is cell-based. To be noted: antagonism of 10^−6 M alpha-MSH.
Description: as §4, §5
The target in a further experiment is T5, human MC5R (hMC5R) (Homo sapiens, UniProt P33032).
T5 construct: purchased Perkin Elmer RBXMC5M400UA
Description: Human MC5R radioligand binding assay (membranes, [125I] NDP-MSH displacement). Summed up:
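Displacement of [125I]NDP-MSH (radioiodinated in house, HPLC-purified) from hMC5R membranes by test compound measured after 1 hr incubation at 37° C.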

For another experiment, the system named is sebum excretion. To be noted: oral, after 8-12 weeks of therapy; cited from earlier work.
[5] abbreviates: hMC5R binding, tested as trifluoroacetate or hydrochloride salts, or free bases, read-out: MC5R radioligand IC50.

T5 sequence (P33032 whole entry): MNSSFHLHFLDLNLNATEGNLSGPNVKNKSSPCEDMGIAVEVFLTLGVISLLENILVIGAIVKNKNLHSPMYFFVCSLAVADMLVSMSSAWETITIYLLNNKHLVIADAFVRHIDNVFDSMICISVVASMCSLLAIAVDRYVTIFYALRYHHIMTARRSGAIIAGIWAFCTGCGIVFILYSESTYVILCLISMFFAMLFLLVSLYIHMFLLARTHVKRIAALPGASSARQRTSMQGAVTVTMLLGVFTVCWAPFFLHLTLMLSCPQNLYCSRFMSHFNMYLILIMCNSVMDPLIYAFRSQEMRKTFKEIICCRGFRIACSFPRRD
T4 sequence (P33032 whole entry): as above
Chain of hMC1R (Q01726 whole entry): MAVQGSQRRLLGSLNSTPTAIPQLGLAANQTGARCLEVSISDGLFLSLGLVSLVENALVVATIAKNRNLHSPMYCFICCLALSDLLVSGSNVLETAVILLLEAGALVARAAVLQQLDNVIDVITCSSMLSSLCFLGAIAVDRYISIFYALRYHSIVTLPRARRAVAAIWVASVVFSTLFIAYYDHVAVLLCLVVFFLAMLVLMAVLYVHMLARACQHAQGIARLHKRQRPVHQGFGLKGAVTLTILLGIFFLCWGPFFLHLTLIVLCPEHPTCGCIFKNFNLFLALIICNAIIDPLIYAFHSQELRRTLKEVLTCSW
Chain of hMC4R (P32245 whole entry): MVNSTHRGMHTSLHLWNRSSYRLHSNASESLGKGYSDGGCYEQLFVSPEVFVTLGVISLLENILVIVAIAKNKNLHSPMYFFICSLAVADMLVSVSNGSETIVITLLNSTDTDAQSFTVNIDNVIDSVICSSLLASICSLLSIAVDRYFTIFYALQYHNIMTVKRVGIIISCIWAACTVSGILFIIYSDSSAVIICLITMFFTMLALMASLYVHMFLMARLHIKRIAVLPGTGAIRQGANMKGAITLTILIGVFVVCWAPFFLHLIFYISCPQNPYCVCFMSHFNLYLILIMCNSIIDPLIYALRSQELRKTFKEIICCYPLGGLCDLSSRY
Chain of hMC3R (P41968 whole entry): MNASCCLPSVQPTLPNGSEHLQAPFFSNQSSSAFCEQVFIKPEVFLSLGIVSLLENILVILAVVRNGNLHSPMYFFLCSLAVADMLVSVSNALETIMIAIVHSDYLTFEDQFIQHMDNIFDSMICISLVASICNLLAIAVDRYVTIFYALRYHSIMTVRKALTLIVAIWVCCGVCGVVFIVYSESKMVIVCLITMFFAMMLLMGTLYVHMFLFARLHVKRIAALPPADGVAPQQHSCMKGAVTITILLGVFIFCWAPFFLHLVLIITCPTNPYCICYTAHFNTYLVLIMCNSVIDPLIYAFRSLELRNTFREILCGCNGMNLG
T2 sequence (A0A5F8AEA9 1-325): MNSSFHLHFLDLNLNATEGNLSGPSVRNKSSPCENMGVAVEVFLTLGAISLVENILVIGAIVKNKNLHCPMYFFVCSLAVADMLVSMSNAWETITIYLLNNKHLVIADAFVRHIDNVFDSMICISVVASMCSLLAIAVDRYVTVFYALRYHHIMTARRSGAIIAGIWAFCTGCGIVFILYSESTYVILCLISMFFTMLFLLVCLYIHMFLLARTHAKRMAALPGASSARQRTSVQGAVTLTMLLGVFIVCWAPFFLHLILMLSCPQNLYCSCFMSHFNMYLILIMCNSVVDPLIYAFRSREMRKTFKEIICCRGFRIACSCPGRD
T1 sequence (A0A5F8AEA9 1-325): as above
T3 sequence (P41149 whole entry): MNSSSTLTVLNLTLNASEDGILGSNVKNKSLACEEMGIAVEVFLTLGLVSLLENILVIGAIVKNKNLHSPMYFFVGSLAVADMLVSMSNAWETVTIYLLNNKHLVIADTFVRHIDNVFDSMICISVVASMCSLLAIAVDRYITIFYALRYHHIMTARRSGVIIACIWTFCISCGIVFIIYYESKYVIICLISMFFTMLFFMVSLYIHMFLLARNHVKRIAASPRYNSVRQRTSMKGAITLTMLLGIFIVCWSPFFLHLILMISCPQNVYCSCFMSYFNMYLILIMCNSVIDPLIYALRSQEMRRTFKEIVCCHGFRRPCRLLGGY

On to `O=C(/C=C/c1ccc(Cl)cc1)NC[C@@H]1CCN(CC(c2ccccc2)c2ccccc2)C(=O)[C@H](CCN2CCCCC2)N1` [Compound 33, (E)-3-(4-chlorophenyl)-N-(((3S,5S)-1-(2,2-diphenylethyl)-2-oxo-3-(2-(piperidin-1-yl)ethyl)-1,4-diazepan-5-yl)methyl)acrylamide], for which the IC50 at hMC1R stood at 2.85 µM; at hMC3R it was 1.5 µM; on hMC4R it was 6.06 µM.
In the case of `O=C(NC[C@@H]1CCN(CC(c2ccccc2)c2ccccc2)C(=O)[C@H](CCCN2CCCCC2)N1)c1ccc2ccccc2c1` [Compound 64, N-(((3S,5S)-1-(2,2-diphenylethyl)-2-oxo-3-(3-(piperidin-1-yl)propyl)-1,4-diazepan-5-yl)methyl)-2-naphthamide], the results for the IC50 in experiment [1] and in experiment [2] were more than 5 µM and 7.31 µM, respectively.
`N=C(N)NCCC[C@@H]1N[C@H](CNC(=O)c2ccc3ccccc3c2)CCN(CC(c2ccccc2)c2ccccc2)C1=O` [Compound 105, N-(((3S,5S)-1-(2,2-diphenylethyl)-3-(3-guanidinopropyl)-2-oxo-1,4-diazepan-5-yl)methyl)-2-naphthamide]: the IC50 amounted to 6.66 µM at hMC1R; 4 µM on mouse MC5R (membrane); 3 µM in experiment [1]; 6.03 µM in [2]; 3.28 µM at hMC4R.
For `CCC(CC)CN1CC[C@@H](CNC(=O)/C=C/c2ccc(Cl)cc2)N[C@@H](CCN2CCCCC2)C1=O` [Compound 331, (E)-3-(4-chlorophenyl)-N-(((3S,5S)-1-(2-ethylbutyl)-2-oxo-3-(2-(piperidin-1-yl)ethyl)-1,4-diazepan-5-yl)methyl)acrylamide], the IC50 is 1.83 µM on hMC3R; 0.094 µM at human MC5R [4]; less than 1 µM on human MC5R (hMC5R) (setting [5]); 0.15 µM on human MC5R (hMC5R) (hMCR binding selectivity, [125I] NDP-MSH, membranes, read-out: human MC5R IC50). At human MC5R [3], this compound gave an EC50 of more than 10 µM.
For the compound `O=C(NC[C@@H]1CCN(Cc2cc(Cl)cc(Cl)c2)C(=O)[C@H](CCN2CCCCC2)N1)c1cc(-c2ccc(Cl)cc2)on1` [Compound 527, 5-(4-chlorophenyl)-N-(((3S,5S)-1-(3,5-dichlorobenzyl)-2-oxo-3-(2-(piperidin-1-yl)ethyl)-1,4-diazepan-5-yl)methyl)isoxazole-3-carboxamide], at human MC5R (hMC5R) (setting [5]), the IC50 is less than 0.1 µM.
Same read-out and setting: then `O=C(NC[C@@H]1CCN(Cc2cc(Cl)cc(Cl)c2)C(=O)[C@H](CCN2CCCCC2)N1)c1ccc(Cl)cc1Cl` [Compound 528, 2,4-dichloro-N-(((3S,5S)-1-(3,5-dichlorobenzyl)-2-oxo-3-(2-(piperidin-1-yl)ethyl)-1,4-diazepan-5-yl)methyl)benzamide], with less than 0.01 µM.
Same read-out and setting: then `COc1c(C(=O)NC[C@@H]2CCN(Cc3cc(Cl)cc(Cl)c3)C(=O)[C@H](CCN3CCCCC3)N2)ccc2ccccc12` [Compound 531, N-(((3S,5S)-1-(3,5-dichlorobenzyl)-2-oxo-3-(2-(piperidin-1-yl)ethyl)-1,4-diazepan-5-yl)methyl)-1-methoxy-2-naphthamide], with less than 0.1 µM; and `O=C(/C=C/c1ccc(OC(F)(F)F)cc1)NC[C@@H]1CCN(Cc2cc(Cl)cc(Cl)c2)C(=O)[C@H](CCN2CCCCC2)N1` [Compound 532, (E)-N-(((3S,5S)-1-(3,5-dichlorobenzyl)-2-oxo-3-(2-(piperidin-1-yl)ethyl)-1,4-diazepan-5-yl)methyl)-3-(4-(trifluoromethoxy)phenyl)acrylamide], with less than 0.01 µM.
Still for that read-out and setting: then `CC[C@H](CN1CC[C@@H](CNC(=O)c2cc(-c3ccc(Cl)cc3)on2)N[C@@H](CCN2CCCCC2)C1=O)c1ccccc1` [Compound 533, 5-(4-chlorophenyl)-N-(((3S,5S)-2-oxo-1-((S)-2-phenylbutyl)-3-(2-(piperidin-1-yl)ethyl)-1,4-diazepan-5-yl)methyl)isoxazole-3-carboxamide], with less than 0.01 µM; and `CC[C@H](CN1CC[C@@H](CNC(=O)c2ccc(Cl)cc2Cl)N[C@@H](CCN2CCCCC2)C1=O)c1ccccc1` [Compound 534, 2,4-dichloro-N-(((3S,5S)-2-oxo-1-((S)-2-phenylbutyl)-3-(2-(piperidin-1-yl)ethyl)-1,4-diazepan-5-yl)methyl)benzamide], with less than 0.01 µM; and `O=C1[C@H](CCN2CCCCC2)N[C@H](CN2C(=O)c3cc(Cl)c(Cl)cc3C2=O)CCN1Cc1cc(Cl)cc(Cl)c1` [Compound 535, 5,6-dichloro-2-(((3S,5S)-1-(3,5-dichlorobenzyl)-2-oxo-3-(2-(piperidin-1-yl)ethyl)-1,4-diazepan-5-yl)methyl)isoindoline-1,3-dione], with less than 1 µM.
In the case of `O=C(/C=C/c1ccc(OC(F)(F)F)c(F)c1)NC[C@@H]1CCN(Cc2cc(Cl)cc(Cl)c2)C(=O)[C@H](CCN2CCCCC2)N1` [Compound 536, (E)-N-(((3S,5S)-1-(3,5-dichlorobenzyl)-2-oxo-3-(2-(piperidin-1-yl)ethyl)-1,4-diazepan-5-yl)methyl)-3-(3-fluoro-4-(trifluoromethoxy)phenyl)acrylamide], the IC50 at human MC5R (hMC5R) (setting [5]) is less than 0.1 µM.
Take `CC[C@H](CN1CC[C@@H](CNC(=O)c2ccc3cc(OC)ccc3c2)N[C@@H](CCN2CCCCC2)C1=O)c1ccccc1` [Compound 537, 6-methoxy-N-(((3S,5S)-2-oxo-1-((S)-2-phenylbutyl)-3-(2-(piperidin-1-yl)ethyl)-1,4-diazepan-5-yl)methyl)-2-naphthamide]: the IC50 on human MC5R (hMC5R) (setting [5]) was less than 0.1 µM.
The same measure, in the same setting: then `CC[C@H](CN1CC[C@@H](CNC(=O)c2ccc3ccccc3c2OC)N[C@@H](CCN2CCCCC2)C1=O)c1ccccc1` [Compound 538, 1-methoxy-N-(((3S,5S)-2-oxo-1-((S)-2-phenylbutyl)-3-(2-(piperidin-1-yl)ethyl)-1,4-diazepan-5-yl)methyl)-2-naphthamide], with less than 0.1 µM; and `CC[C@H](CN1CC[C@@H](CNC(=O)/C=C/c2ccc(OC(F)(F)F)c(F)c2)N[C@@H](CCN2CCCCC2)C1=O)c1ccccc1` [Compound 539, (E)-3-(3-fluoro-4-(trifluoromethoxy)phenyl)-N-(((3S,5S)-2-oxo-1-((S)-2-phenylbutyl)-3-(2-(piperidin-1-yl)ethyl)-1,4-diazepan-5-yl)methyl)acrylamide], with less than 0.01 µM.
With `CC1=C(/C=C/C(C)=C/C=C/C(C)=C\C(=O)O)C(C)(C)CCC1` [isotretinoin], the “reduction of sebum excretion” value in the experiment on sebum excretion is “up to 90%”.

Source of the values: US8008291B2 (Mimetica Pty Ltd, priority 2008, dated 2011).
